Results from ChEMBL document CHEMBL4190319, “Piperlongumine B and analogs are promising and selective inhibitors for acetylcholinesterase” (Eur J Med Chem, 2017).

Tests used:
[1] = Solubility of the compound in DMSO; type: physicochemical
[2] = Cytotoxicity against mouse NIH/3T3 cells assessed as cell survival at 40 uM after 96 hrs by sulforhodamine B assay relative to control; type: cell-based, NIH3T3; conditions: read-out: Survival
FaDu [3] = assay: Cytotoxicity against human FADU cells assessed as cell survival at 40 uM after 96 hrs by sulforhodamine B assay relative to control; type: functional; conditions: read-out: Survival
Acetylcholinesterase [4] = molecular target: T1, Acetylcholinesterase (Electrophorus electricus, UniProt O42275); assay: Competitive inhibition of electric eel AChE assessed as inhibition constant for enzyme-substrate-inhibitor complex preincubated for 20 mins followed by acetylthiocholine iodide substrate addition and measured for 30 mins at 1 min intervals by Ellman's method
T1 sequence (O42275 whole entry): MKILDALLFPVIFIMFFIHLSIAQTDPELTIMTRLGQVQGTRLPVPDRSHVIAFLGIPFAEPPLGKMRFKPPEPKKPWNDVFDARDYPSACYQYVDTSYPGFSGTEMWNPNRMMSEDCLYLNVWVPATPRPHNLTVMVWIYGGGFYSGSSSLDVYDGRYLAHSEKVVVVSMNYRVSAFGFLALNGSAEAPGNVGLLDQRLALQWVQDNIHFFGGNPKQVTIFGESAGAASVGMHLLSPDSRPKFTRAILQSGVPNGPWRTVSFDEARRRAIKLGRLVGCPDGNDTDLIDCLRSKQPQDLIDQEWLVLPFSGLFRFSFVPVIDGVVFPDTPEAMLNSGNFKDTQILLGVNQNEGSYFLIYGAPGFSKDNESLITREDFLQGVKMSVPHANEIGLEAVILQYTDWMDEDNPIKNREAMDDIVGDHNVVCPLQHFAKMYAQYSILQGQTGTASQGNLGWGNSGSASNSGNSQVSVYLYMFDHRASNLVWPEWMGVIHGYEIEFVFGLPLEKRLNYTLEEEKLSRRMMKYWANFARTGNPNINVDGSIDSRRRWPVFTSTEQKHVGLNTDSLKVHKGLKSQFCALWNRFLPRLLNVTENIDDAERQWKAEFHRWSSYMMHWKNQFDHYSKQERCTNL

MCF7 [5] = assay: Cytotoxicity against human MCF7 cells assessed as cell survival at 40 uM after 96 hrs by sulforhodamine B assay relative to control; type: functional; conditions: MCF7, 96 h, read-out: Survival
A253 cell line [6] = assay: Cytotoxicity against human A253 cells assessed as cell survival at 40 uM after 96 hrs by sulforhodamine B assay relative to control; type: functional; conditions: A253, 96 h, read-out: Survival
Acetylcholinesterase [7] = molecular target: T1, Acetylcholinesterase; assay: Competitive inhibition of electric eel AChE assessed as inhibition constant for enzyme inhibitor complex preincubated for 20 mins followed by acetylthiocholine iodide substrate addition and measured for 30 mins at 1 min intervals by Ellman's method
HT-29 [8] = assay: Cytotoxicity against human HT-29 cells assessed as cell survival at 40 uM after 96 hrs by sulforhodamine B assay relative to control; type: functional; conditions: HT-29, 96 h, read-out: Survival
SW-1736 [9] = assay: Cytotoxicity against human SW1736 cells assessed as cell survival at 40 uM after 96 hrs by sulforhodamine B assay relative to control; type: functional; conditions: SW-1736, 96 h, read-out: Survival
[10] = Cytotoxicity against mouse NIH/3T3 cells assessed as cell survival at 60 uM after 96 hrs by sulforhodamine B assay relative to control; type: cell-based, NIH3T3; conditions: read-out: Survival
MCF7 [11] = assay: Cytotoxicity against human MCF7 cells assessed as cell survival at 60 uM after 96 hrs by sulforhodamine B assay relative to control; type: functional; conditions: MCF7, 96 h, read-out: Survival
FaDu [12] = assay: Cytotoxicity against human FADU cells assessed as cell survival at 60 uM after 96 hrs by sulforhodamine B assay relative to control; type: functional; conditions: read-out: Survival
SW-1736 [13] = assay: Cytotoxicity against human SW1736 cells assessed as cell survival at 60 uM after 96 hrs by sulforhodamine B assay relative to control; type: functional; conditions: SW-1736, 96 h, read-out: Survival
A253 cell line [14] = assay: Cytotoxicity against human A253 cells assessed as cell survival at 60 uM after 96 hrs by sulforhodamine B assay relative to control; type: functional; conditions: A253, 96 h, read-out: Survival
HT-29 [15] = assay: Cytotoxicity against human HT-29 cells assessed as cell survival at 60 uM after 96 hrs by sulforhodamine B assay relative to control; type: functional; conditions: HT-29, 96 h, read-out: Survival

With CCCCCCCCCCCCCCCCC/C=C/C(=O)N1CCCC1 the solubility [1] was “Insoluble”.

For CCCCCCCCCCCCC/C=C/C(=O)N1CCCCC1, the viability at 96 h, 40 µM [2] was 80%, the viability at 40 µM (FaDu [3]) was 90% and the Ki (Acetylcholinesterase [4]) was greater than 50 µM. It also gave a viability at 40 µM (MCF7 [5]) of 40%, a viability at 40 µM (A253 cell line [6]) of 57% and a Ki (Acetylcholinesterase [7]) of 7.45 µM. The viability at 40 µM (HT-29 [8]) was 47% and the viability at 40 µM (SW-1736 [9]) was 77%.

For CCCCCCCCCCCCCCC/C=C/C(=O)N1CCCC1, the solubility [1] was “Insoluble”.

With CCCCCCCCCCCCC/C=C/C(=O)N1CCCCCCC1 the viability at 96 h, 40 µM [2] was 50%, the viability at 40 µM (FaDu [3]) was 61% and the Ki (Acetylcholinesterase [4]) was 23.3 µM. For the same compound, the viability at 40 µM (MCF7 [5]) was 27%, the viability at 40 µM (A253 cell line [6]) was 40% and the Ki (Acetylcholinesterase [7]) was 2.04 µM. For the same compound, the viability at 40 µM (HT-29 [8]) was 15% and the viability at 40 µM (SW-1736 [9]) was 43%.

For CCCCCCCCCCC/C=C/C(=O)N1CCCCCC1, the viability at 96 h, 60 µM [10] was 63%, the Ki (Acetylcholinesterase [4]) was 45.4 µM and the viability at 60 µM (MCF7 [11]) was 35%. The viability at 60 µM (FaDu [12]) was 85%, the viability at 60 µM (SW-1736 [13]) was 80% and the Ki (Acetylcholinesterase [7]) was 9.99 µM. It also gave a viability at 60 µM (A253 cell line [14]) of 63% and a viability at 60 µM (HT-29 [15]) of 57%.

For CCCCCCCCCCC/C=C/C(=O)N1CCC1, the viability at 96 h, 60 µM [10] was 80%, the viability at 60 µM (MCF7 [11]) was 59% and the viability at 60 µM (FaDu [12]) was 95%. For the same compound, the viability at 60 µM (SW-1736 [13]) was 89%, the viability at 60 µM (A253 cell line [14]) was 77% and the viability at 60 µM (HT-29 [15]) was 84%.

In the case of CCCCCCCCCCCCCCCCC/C=C/C(=O)N1CCCCCC1, the solubility [1] is reported as “Insoluble”.

CCCCCCCCCCCCC/C=C/C(=O)N1CCC1 gave a viability at 96 h, 40 µM [2] of 92%, a viability at 40 µM (FaDu [3]) of 96% and a viability at 40 µM (MCF7 [5]) of 62%. The viability at 40 µM (A253 cell line [6]) was 69%, the viability at 40 µM (HT-29 [8]) was 71% and the viability at 40 µM (SW-1736 [9]) was 88%.

CCCCCCCCCCCCCCC/C=C/C(=O)N1CCCCCCC1 showed a viability at 96 h, 60 µM [10] of 75%, a Ki (Acetylcholinesterase [4]) greater than 50 µM and a viability at 60 µM (MCF7 [11]) of 83%. For the same compound, the viability at 60 µM (FaDu [12]) was 93%, the viability at 60 µM (SW-1736 [13]) was 81% and the Ki (Acetylcholinesterase [7]) was 5.09 µM. For the same compound, the viability at 60 µM (A253 cell line [14]) was 80% and the viability at 60 µM (HT-29 [15]) was 69%.

In the case of CCCCCCCCCCCCCCCCC/C=C/C(=O)N1CCC1, the solubility [1] is reported as “Insoluble”.

CCCCCCCCCCC/C=C/C(=O)N1CCCC1 gave a viability at 96 h, 60 µM [10] of 78%, a viability at 60 µM (MCF7 [11]) of 69% and a viability at 60 µM (FaDu [12]) of 96%. For the same compound, the viability at 60 µM (SW-1736 [13]) was 99%, the viability at 60 µM (A253 cell line [14]) was 86% and the viability at 60 µM (HT-29 [15]) was 86%.

In the case of CCCCCCCCCCCCC/C=C/C(=O)N1CCCCCC1, the viability at 96 h, 40 µM [2] is reported as 69%, the viability at 40 µM (FaDu [3]) is reported as 77% and the Ki (Acetylcholinesterase [4]) is reported as 81.9 µM. It also gave a viability at 40 µM (MCF7 [5]) of 27%, a viability at 40 µM (A253 cell line [6]) of 46% and a Ki (Acetylcholinesterase [7]) of 3.41 µM. It also gave a viability at 40 µM (HT-29 [8]) of 22% and a viability at 40 µM (SW-1736 [9]) of 61%.

Work on CCCCCCCCCCC/C=C/C(=O)N1CCCCCCC1 yielded a viability at 96 h, 60 µM [10] of 70%, a Ki (Acetylcholinesterase [4]) of 23 µM and a viability at 60 µM (MCF7 [11]) of 40%. For the same compound, the viability at 60 µM (FaDu [12]) was 84%, the viability at 60 µM (SW-1736 [13]) was 76% and the Ki (Acetylcholinesterase [7]) was 6.83 µM. It also gave a viability at 60 µM (A253 cell line [14]) of 57% and a viability at 60 µM (HT-29 [15]) of 52%.

For CCCCCCCCCCCCCCC/C=C/C(=O)N1CCC1, the solubility [1] was “Insoluble”.

In the case of CCCCCCCCCCCCCCCCC/C=C/C(=O)N1CCCCC1, the solubility [1] is reported as “Insoluble”.

For CCCCCCCCCCCCC/C=C/C(=O)N1CCCC1, the viability at 96 h, 40 µM [2] was 60%, the viability at 40 µM (FaDu [3]) was 79% and the viability at 40 µM (MCF7 [5]) was 24%. For the same compound, the viability at 40 µM (A253 cell line [6]) was 44%, the viability at 40 µM (HT-29 [8]) was 24% and the viability at 40 µM (SW-1736 [9]) was 42%.

CCCCCCCCCCCCCCC/C=C/C(=O)N1CCCCCC1 gave a viability at 96 h, 60 µM [10] of 74%, a Ki (Acetylcholinesterase [4]) of 41.5 µM and a viability at 60 µM (MCF7 [11]) of 75%. For the same compound, the viability at 60 µM (FaDu [12]) was 94%, the viability at 60 µM (SW-1736 [13]) was 86% and the Ki (Acetylcholinesterase [7]) was 3.16 µM. The viability at 60 µM (A253 cell line [14]) was 88% and the viability at 60 µM (HT-29 [15]) was 76%.

In the case of CCCCCCCCCCCCCCC/C=C/C(=O)N1CCCCC1, the solubility [1] is reported as “Insoluble”.

CCCCCCCCCCC/C=C/C(=O)N1CCCCC1 gave a viability at 96 h, 40 µM [2] of 74%, a viability at 40 µM (FaDu [3]) of 97% and a viability at 40 µM (MCF7 [5]) of 51%. The viability at 40 µM (A253 cell line [6]) was 67%, the viability at 40 µM (HT-29 [8]) was 68% and the viability at 40 µM (SW-1736 [9]) was 63%.

With CCCCCCCCCCCCCCCCC/C=C/C(=O)N1CCCCCCC1 the solubility [1] was “Insoluble”.
